Laboratory results published in patent US5043273A, “Phosphorylated glycosidase inhibitor prodrugs” (Monsanto Company, priority 1989, dated 1991).
Like-named read-outs stand apart in the source and are kept apart here.

How the values were obtained:
[1] = target: T1, Porcine Intestinal Sucrase (Sus scrofa, UniProt P56729); experiment: Inhibition constants against porcine intestinal sucrase; assay type: biochemical
T1 construct: both chains cut from one SI precursor
Experimental: (§1) Porcine Intestinal Sucrase and Maltase. A sucrase-isomaltase complex was extracted from pig small intestine by treatment with urea and then solubilized by digestion with papain. The enzyme-complex was recovered by ethanol precipitation and then further purified by cellulose DE-52 anion exchange chromatography. The activity of sucrase was assayed by incubating an appropriate amount of enzyme at 37° C. in a final volume of 150 μ1 containing 25 mM sodium citrate buffer, pH 6.0, and 30 mM sucrose as substrate. After 30 min. the enzyme was inactivated by heating at 100° C. for 3 min, the reaction mixture centrifuged at 15000×g for 15 min and a 50 µl aliquot of the supernatant removed and the enzymereleased glucose determined by the glucose oxidase-peroxidase method described by Trinder, Ann. Clin. Biochem. 6, 24 (1969). Under the standard assay conditions, the release of glucose was linear up to 10% hydrolysis of the substrate. […] Maltase activity associated with the sucrase-isomaltase complex [Kolinska and Semenze, Biochim. Biophys. Acta 146, 181 (1967)] was assayed in a manner similar to sucrase except that the substrate was 30 mM maltose. Under the standard assay conditions release of glucose was linear up to 8% hydrolysis of the substrate. The specific activity of maltase was 15.2 units/mg protein.
Inhibition constants for the various DNJ derivatives and castanospermine were determined from Lineweaver-Burk plots of the enzyme-catalyzed reaction in the presence and absence of different fixed concentrations of each inhibitor. Incubations using sucrase were for 30 min at a concentration of 90 milliunits/ml and for maltase were for 12 min at a concentration of 80 milliunits/ml.

[2] = target: T2, Porcine Microsomal Alpha-Glucosidase I (Sus scrofa, UniProt K7N7E7); experiment: Inhibition constants against porcine microsomal alpha-glucosidase I; assay type: biochemical
T2 construct: Alpha-glucosidase I was isolated from porcine liver microsomes; from tissue; host or cells: porcine liver microsomes
T2 sequence (K7N7E7 1-839): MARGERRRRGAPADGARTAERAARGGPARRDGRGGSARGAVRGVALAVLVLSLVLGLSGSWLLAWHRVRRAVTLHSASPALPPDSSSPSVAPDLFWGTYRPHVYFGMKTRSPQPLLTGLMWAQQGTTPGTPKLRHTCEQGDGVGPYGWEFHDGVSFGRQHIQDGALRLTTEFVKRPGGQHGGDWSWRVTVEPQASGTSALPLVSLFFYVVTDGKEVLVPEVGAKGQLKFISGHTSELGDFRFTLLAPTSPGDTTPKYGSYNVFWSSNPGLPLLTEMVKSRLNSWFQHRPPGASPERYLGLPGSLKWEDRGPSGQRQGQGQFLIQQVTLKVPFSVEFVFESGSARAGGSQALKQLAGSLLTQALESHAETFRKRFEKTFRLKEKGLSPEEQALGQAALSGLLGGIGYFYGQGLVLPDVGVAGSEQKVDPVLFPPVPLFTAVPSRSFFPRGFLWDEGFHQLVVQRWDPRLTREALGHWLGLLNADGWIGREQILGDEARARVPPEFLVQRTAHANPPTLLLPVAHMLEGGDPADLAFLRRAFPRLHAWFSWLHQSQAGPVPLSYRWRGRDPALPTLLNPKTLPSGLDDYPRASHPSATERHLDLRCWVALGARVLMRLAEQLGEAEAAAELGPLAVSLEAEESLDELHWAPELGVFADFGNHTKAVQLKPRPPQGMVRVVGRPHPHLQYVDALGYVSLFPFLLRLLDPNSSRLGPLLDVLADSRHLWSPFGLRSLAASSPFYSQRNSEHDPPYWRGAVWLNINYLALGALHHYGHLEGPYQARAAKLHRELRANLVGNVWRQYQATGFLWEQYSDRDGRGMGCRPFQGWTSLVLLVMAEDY
Experimental: Porcine Microsomal Alpha-Glucosidase I. Alpha-glucosidase I was isolated from porcine liver microsomes by an affinity chromatographic method similar to that described by Hettkamp et.al., Eur J. Biochem. 142, 85-90 (1981).
Inhibition constants for the various DNJ derivatives and castanospermine were determined assuming competitive inhibition and were derived from the initial rates for the hydrolysis of [^14 C-Glc]Glc3 Man9 GlcNAc2 (at a concentration of 0.044 μM), at pH7.0 and 37° C. in the presence and absence of several fixed concentrations of each inhibitor.

[3] = target: T3, Porcine Intestinal Maltase (Sus scrofa, UniProt P56729); experiment: Inhibition constants against porcine intestinal maltase; assay type: biochemical
T3 construct: both chains cut from one SI precursor
T3 sequence (P56729 with tags, fused parts or gaps): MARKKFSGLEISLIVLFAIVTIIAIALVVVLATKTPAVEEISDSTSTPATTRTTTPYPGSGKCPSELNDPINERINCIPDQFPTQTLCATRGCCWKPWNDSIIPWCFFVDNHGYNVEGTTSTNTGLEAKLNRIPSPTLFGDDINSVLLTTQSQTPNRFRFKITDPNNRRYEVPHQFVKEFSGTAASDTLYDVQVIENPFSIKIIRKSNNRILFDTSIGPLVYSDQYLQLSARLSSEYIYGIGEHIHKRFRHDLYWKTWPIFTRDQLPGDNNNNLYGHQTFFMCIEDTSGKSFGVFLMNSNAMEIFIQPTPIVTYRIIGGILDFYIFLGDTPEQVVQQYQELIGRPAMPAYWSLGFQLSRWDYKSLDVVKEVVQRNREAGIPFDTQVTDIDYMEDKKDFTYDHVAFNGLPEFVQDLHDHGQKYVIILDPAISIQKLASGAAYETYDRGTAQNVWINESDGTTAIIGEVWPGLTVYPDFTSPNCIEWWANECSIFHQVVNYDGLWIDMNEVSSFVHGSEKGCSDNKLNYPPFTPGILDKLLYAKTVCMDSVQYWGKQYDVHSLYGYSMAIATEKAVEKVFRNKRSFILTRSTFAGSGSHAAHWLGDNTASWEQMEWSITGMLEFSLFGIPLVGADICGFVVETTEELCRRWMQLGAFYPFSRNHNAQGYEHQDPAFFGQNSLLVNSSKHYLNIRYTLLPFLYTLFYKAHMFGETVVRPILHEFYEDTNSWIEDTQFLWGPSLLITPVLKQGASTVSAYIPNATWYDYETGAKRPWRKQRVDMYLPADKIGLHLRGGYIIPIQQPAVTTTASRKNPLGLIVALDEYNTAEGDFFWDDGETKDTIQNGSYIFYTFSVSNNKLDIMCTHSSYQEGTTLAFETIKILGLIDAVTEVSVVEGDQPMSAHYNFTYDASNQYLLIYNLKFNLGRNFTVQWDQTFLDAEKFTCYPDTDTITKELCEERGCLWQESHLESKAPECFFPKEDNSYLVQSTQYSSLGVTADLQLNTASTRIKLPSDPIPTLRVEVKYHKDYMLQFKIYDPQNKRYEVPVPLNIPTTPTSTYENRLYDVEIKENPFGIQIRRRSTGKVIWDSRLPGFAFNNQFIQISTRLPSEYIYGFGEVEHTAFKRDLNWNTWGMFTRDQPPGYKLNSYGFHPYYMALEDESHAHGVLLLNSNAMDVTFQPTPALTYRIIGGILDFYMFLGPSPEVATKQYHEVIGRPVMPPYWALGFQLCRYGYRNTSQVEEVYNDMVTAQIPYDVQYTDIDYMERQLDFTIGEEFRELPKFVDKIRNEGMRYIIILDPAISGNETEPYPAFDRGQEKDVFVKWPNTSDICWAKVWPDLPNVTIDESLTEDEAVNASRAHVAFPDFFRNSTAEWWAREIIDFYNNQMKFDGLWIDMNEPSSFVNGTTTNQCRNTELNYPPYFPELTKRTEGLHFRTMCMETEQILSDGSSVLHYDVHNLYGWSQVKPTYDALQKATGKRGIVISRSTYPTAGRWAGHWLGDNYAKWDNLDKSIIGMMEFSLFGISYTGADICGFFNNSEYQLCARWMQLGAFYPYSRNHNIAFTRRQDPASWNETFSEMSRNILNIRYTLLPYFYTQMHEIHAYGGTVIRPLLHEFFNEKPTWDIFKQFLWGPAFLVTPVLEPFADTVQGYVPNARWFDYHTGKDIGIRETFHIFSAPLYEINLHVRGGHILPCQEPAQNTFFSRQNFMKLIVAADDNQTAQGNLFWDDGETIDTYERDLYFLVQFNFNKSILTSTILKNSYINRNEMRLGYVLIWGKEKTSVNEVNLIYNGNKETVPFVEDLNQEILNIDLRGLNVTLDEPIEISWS
Experimental: as §1, with “Under the standard assay conditions release of glucose was linear up to 8% hydrolysis of the substrate. The specific activity of maltase was 15.2 units/mg protein.” left out
Inhibition constants for the various DNJ derivatives and castanospermine were determined from Lineweaver-Burk plots of the enzyme-catalyzed reaction in the presence and absence of different fixed concentrations of each inhibitor. […]

[4] = tested on: human immunodeficiency virus (HIV); details: at noncytotoxic concentrations; cited from earlier work
[5] = tested on: bovine intestinal alkaline phosphatase; experiment: Dephosphorylation by alkaline phosphatase (biolability of the phosphate group); assay type: in vitro ADME; details: 1 mM compound, 130 U/ml enzyme, 37° C., pH 9.5, 16 h, assayed by HPAEC
Experimental: N-Butyldeoxynojirimycin-6-phosphate (1 mM) was incubated with bovine intestinal alkaline phosphatase (Sigma Type VII, 130 U/ml) at 37° C. n 0.1 m Na2 Co3 /NaHCO3 buffer, pH 9.5.

[6] = pig small intestine, 30 mM sucrose, pH 6.0, 37° C., 30 min, Lineweaver-Burk plots, read-out: Ki Intestinal Sucrase
[7] = porcine liver microsomes, substrate [14C-Glc]Glc3Man9GlcNAc2 0.044 μM, pH 7.0, 37° C., competitive inhibition assumed, read-out: Ki Microsomal α-Glucosidase I

T1 sequence (P56729 with tags, fused parts or gaps): as above

SMILES	Ki [1]	Ki [2]	Ki [1, 6]	Ki [2, 7]	Inhibition of sucrase (in words) [1]	Inhibition of maltase (in words) [3]	Reduction of virus titer [4]	Inhibition of α-glucosidase I (in words) [2]	Dephosphorylation by alkaline phosphatase ([5]; listed as N-Butyldeoxynojirimycin-6-phosphate)	Dephosphorylation by alkaline phosphatase ([5]; listed as N-butyl-deoxynojirimycin-6-phosphate)
OC[C@H]1NC[C@H](O)[C@@H](O)[C@@H]1O [DNJ, deoxynojirimycin]	0.05 µM	0.83 µM	–	–	–	–	–	–	–	–
O[C@H]1[C@H](O)[C@@H](O)CN2CC[C@H](O)[C@H]12 [Castanospermine, castanospermine]	–	–	0.064 µM	0.04 µM	–	–	–	–	–	–
CCCCN1C[C@H](O)[C@@H](O)[C@H](O)[C@H]1CO [N-BuDNJ, N-butyldeoxynojirimycin]	0.18 µM	0.22 µM	–	–	potent inhibitor	potent inhibitor	greater than five logarithms	–	–	–
CCCCN1C[C@H](O)[C@@H](O)[C@H](O)[C@H]1COP(=O)(O)O [N-BuDNJ-6-P, N-butyldeoxynojirimycin-6-phosphate]	–	–	1500 µM	4000 µM	very weak inhibitor	very weak inhibitor	–	very weak inhibitor	completely dephosphorylated	completely dephosphorylted
O=P(O)(O)OC[C@H]1NC[C@H](O)[C@@H](O)[C@@H]1O [DNJ-6-P, deoxynojirimycin-6-phosphate]	–	–	520 µM	6600 µM	–	–	–	–	–	–
